# Test results as given in ChEMBL document CHEMBL5726195, “Pharmaceutically active pyrazine derivatives” (2017).
# Biological target: T1, Serine/threonine-protein kinase Chk1 (Homo sapiens, UniProt O14757)
# T1 sequence (O14757 whole entry): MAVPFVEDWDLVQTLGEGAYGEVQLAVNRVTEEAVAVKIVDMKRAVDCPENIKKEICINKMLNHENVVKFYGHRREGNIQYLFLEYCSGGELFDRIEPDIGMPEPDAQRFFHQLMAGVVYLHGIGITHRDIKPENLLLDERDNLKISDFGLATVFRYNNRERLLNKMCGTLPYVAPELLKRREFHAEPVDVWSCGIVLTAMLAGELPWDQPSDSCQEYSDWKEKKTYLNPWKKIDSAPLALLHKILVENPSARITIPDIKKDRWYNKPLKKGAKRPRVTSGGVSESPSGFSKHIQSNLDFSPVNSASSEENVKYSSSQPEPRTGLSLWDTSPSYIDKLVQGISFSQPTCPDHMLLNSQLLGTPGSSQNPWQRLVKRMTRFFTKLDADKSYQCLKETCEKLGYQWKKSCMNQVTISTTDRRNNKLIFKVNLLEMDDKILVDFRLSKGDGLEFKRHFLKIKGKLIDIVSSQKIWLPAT
# Assay: Kinase Inhibition Asssay: Reaction Buffer:Base Reaction buffer: 20 mM Hepes (pH 7.5), 10 mM MgCl2, 1 mM EGTA, 0.02% Brij35, 0.02 mg/ml BSA, 0.1 mM Na3VO4, 2 mM DTT, 1% DMSORequired cofactors are added individually to each kinase reactionReaction Procedure:(i) Prepare indicated substrate in freshly prepared Base Reaction Buffer(ii) Deliver any required cofactors to the substrate solution above(iii) Deliver indicated kinase into the substrate solution and gently mix(iv) Deliver compounds in DMSO into the kinase reaction mixture(v) Deliver 33P-ATP (specific activity 0.01 μCi/μl final) into the reaction mixture to initiate the reaction.(vi) Incubate kinase reaction for 120 minutes at room temperature(vii) Reactions are spotted onto P81 ion exchange paper (Whatman #3698-915)(viii) Wash filters extensively in 0.1% phosphoric acid.(ix) Dry filters and measure counts in scintillation counterKinase Information:CHK-1 Genbank Accession # AF016582Recombinant full length construct, N-terminal GST tagged, purified from insect cells.No special measures were taken to activate this kinase.Final concentration in assay=0.5 nMSubstrate: CHKtidePeptide sequence: [[…]]Final concentration in assay=20 μM
compound,measurement,value
COc1cc(CCNC[C@H]2CCCNC2)c(Cl)cc1NC(=O)Nc1cnc(C#N)cn1,IC50,0.06 nM
COc1cc(CCNC[C@@H]2CCCNC2)c(Cl)cc1NC(=O)Nc1cnc(C#N)cn1,IC50,0.1 nM
